Experimental findings from US20050042747A1, “Hivgp120-induced bob/gpr15 activation” (priority 2001, published 2005) are described below.

“Also recorded” adds a separate entry of the source. Read-outs that look alike come from different tables or passages of the source.

The test system of assay [1] is peripheral blood mononuclear cells. Description: gp120-induced calcium flux in peripheral blood mononuclear cells. Type of assay: cell-based, human. Here is the method:
Normal human peripheral blood mononuclear cells were isolated by Ficoll gradient centrifugation, and loaded with the calcium sensitive dye Fluo-4. HIV gp120IIIB induced strong calcium fluxes in the range of 7 nM to 50 pM, and there was a weaker signal at 5 pM.
Experiments corresponding to those with HT-29 cells were done with peripheral blood mononuclear cells. These were isolated from the blood of a healthy, HIV-uninfected person by a Ficoll-Hypaque techique (Histopaque, Sigma), then loaded with Fluo-4 by a technique nearly identical to that used for HT-29 cells, except that Hank's buffer was used rather than Locke's, and the cells were centrifuged (2,000 g for 10 minutes) just before calcium flux measurements to improve adherence. Gp120-induced calcium fluxes were documented with as little as 5 pM gp120IIIB.
(In general: Calcium flux is commonly read through the fluorescence of an indicator in the cells.)

The test system of another assay is HT-29 cells. As to the kind of experiment: Calcium signaling in HT-29 cells (Fluo 4, confocal microscope). Type of assay: cell-based, human. How it is done:
HT-29 cells (from ATCC) were grown in DMEM-F12 with 10% bovine calf serum, and were used 24-48 hours after plating. The Ghost (3) cells were obtained from the AIDS Research and Reference Reagent Program, and were grown DMEM with 10% bovine calf serum supplemented with 500 μg/ml G418, 100 μg/ml hygromycin, and 1 μg/ml puromycin.^27 These cells were used 24 to 96 hours after plating.
(§1) Calcium studies were done on HT-29 cells and Ghost (3) cells loaded with Fluo 4. The cells were placed in Locke's buffer containing 5 μg/ml Fluo 4 AM ester (Molecular Probes) for 20 to 30 minutes, then in Locke's buffer for an additional 30 minutes before testing. Various concentrations of gp120IIIB (X4 trophic), gp120CM235 (R5 trophic), gp120mN (X4 trophic), gp12093TH975 (nonsyncytium-inducing primary isolate from an asymptomatic subject, trophism undetermined but likely R5), and gp120SF2 (X4R5 trophic), ranging from 10 nM to less than 1 pM, were added in Locke's buffer.^6 The gp120 proteins were obtained from the AIDS Research Reagent Referral Program. Some HT-29 cells were given one of the following pretreatments: 50 μg/ml anti-Bob37 overnight, 1 μg/ml pertussis toxin overnight, or 4.6 μg/ml U73122 for one hour. With the HT-29 cells only, similar tests were also performed with SDF-1, MIP-1α, MIP-1β, and RANTES rather than gp120. The cells were visualized every 4 seconds in a confocal microscope, using 488 nm argon laser excitation and detection filters appropriate for fluorescein-like dyes.
For the first two or three days after plating, gp120 induces an immediate (within 4 seconds) calcium flux in undifferentiated HT-29 cells. The cells had previously been loaded with Fluo-4 AM ester (Molecular Probes, Eugene Oreg.) 5 micrograms/ml in the presence of Pleuronic F-127 0.02% in Locke's buffer for 30 minutes, then incubated at room temperature for an additional 30 minutes. Gp120IIIB was added while the cells were on an inverted confocal microscope using a 488 nm argon laser, with detection filters suitable for fluorescein-like dyes. […]

Assay [2] concerns microtubules in HT-29 cells. As to the kind of experiment: Microtubule staining (acetylated tubulin) in HT-29 cells. Type of assay: cell-based, human. To be noted: one hour after gp120 treatment. Here is the method: To examine the microtubules, HT-29 cells were treated with 10 nM gp120CM235 or 50 pM gp120IIIB, then fixed one hour later in 4 g/100 ml paraformaldehyde PBS, then stained with mouse anti acetylated tubulin (5 μg/ml, Sigma) by a method similar to that given above. Some cells were pretreated with 50 μg/ml antiBob37 overnight, 1 μg/ml pertussis toxin overnight, or 4.6 μg/ml U73122 for one hour before the gp120 was added. Untreated cells were also stained.
Similarly treated undifferentiated HT-29 cells (except that Fluo-4 was not added) were fixed in paraformaldehyde phosphate buffered saline one hour after gp120 treatment.

Another assay concerns the target T1, Bob (Homo sapiens, UniProt P49685).
T1 construct: host or cells: Ghost (3) cells (human osteosarcoma, also transfected with CD4 and a GFP reporter)
T1 sequence (P49685 1-360): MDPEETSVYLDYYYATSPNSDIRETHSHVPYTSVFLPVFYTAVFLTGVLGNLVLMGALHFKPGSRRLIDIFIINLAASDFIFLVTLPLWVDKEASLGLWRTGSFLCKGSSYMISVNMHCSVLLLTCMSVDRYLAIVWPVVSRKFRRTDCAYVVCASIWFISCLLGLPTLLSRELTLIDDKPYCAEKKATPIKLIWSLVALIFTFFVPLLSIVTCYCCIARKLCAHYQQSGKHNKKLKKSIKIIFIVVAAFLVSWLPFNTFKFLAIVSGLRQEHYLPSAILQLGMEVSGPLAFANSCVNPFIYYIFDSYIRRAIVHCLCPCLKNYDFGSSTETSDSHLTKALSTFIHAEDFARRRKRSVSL
Description: gp120-induced calcium flux, Ghost (3) cells transfected with Bob (Fluo-4). The assay is classed as cell-based. Further details: key to minimal concentration of gp120 resulting in a significant calcium flux: — = no calcium flux seen at any dilution tested. To be noted: for minimal concentration of gp120 resulting in a significant calcium flux: Ghost (3) Bob cells. Here is the method: as §1
Human osteosarcoma cell lines were transfected to express CD4, one or another of the HIV coreceptors, and a Green Fluorescent Protein reporter for active HIV infection, for the purpose of testing which of the known coreceptors was used to induce HIV infection by a given HIV strain (Morner A. J Virol 73:2343-9, 1999 and Deng K Nature 388:296-300, 1997). These cells were obtained from the AIDS Research and Reference Reagent Program, courtesy of Dr. Vineet KewalRamani and Dr. Dan Littman. These cells were grown in DMEM with 10% bovine calf serum supplemented with 0.5 mg/ml G418, 0.1 mg/ml hygromycin, and 1 microgram/ml puromycin, and were used at low passage number (less than 10). We have discovered that these cell lines are also activated by gp120 of certain viral strains, inducing a calcium flux in these cells.
Within 4 days of plating, coreceptor-transfected Ghost (3) cells (as well as the parent cell line not transfected to express any HIV coreceptors as a control) were put in Locke's medium, then treated with Fluo-4 (5 micrograms/ml for 30 minutes at 37° C.). After an additional 30 minute incubation in Locke's buffer at room temperature, the cells were examined in a confocal microscope while gp120 of various viral strains was added, and the cells were examined at 4 second intervals to look for a gp120-induced calcium flux. The results are given in the following table, expressed as the minimal concentration of gp120 resulting in a significant calcium flux. “−” means that no reproducible calcium flux was observed. “ND” means that the gp120 of that viral strain was not tested with the stated coreceptor.
These cells were treated with serial dilutions (100 or 250 nM to at least 1 pM, or even less if calcium fluxes were noted) of gp120. Gp120s from each of four HIV-1 strains: IIIB, CM235, SF2, and […] were used. Listed is the greatest dilution which induced a significant, reproducible calcium flux. The parental line is known to express CXCR4 at very low levels. Those results indicated by an asterisk are thought to represent this artifact.

Regarding “gp120IIIB: HIV-1 envelope surface protein gp120 of strain IIIB (X4 trophic), from the AIDS Research Reagent Referral Program”, the “cells substantially brighter after treatment (increase in intracellular calcium)” value in assay [1] (50 picomolar, 4 seconds after treatment, Fluo-4) is given as “Approximately 30%”. The “lowest gp120IIIB concentration giving calcium flux” value in assay [1] (freshly isolated cells) was 5 pM. Moreover, the “calcium signaling in HT-29 cells, in words” value with HT-29 cells was “induced an immediate calcium signal”. The “minimal concentration causing calcium signaling” value in the assay with HT-29 cells (undifferentiated HT-29 cells, serial dilution) is 1 pM. In assay [2], the “effect on acetylated tubulin-staining microtubules” value was “marked loss of microtubules”. Further, the “Bob activation / calcium signals in Bob-transfected Ghost (3) cells, in words” value with Bob is recorded as “extremely potent activator”. In the assay with Bob (serial dilutions), the “minimal concentration of gp120 resulting in a significant calcium flux” value is on record as 15 fM.

As for “gp120SF2: gp120 of HIV strain SF2 (X4R5 trophic)”, the “minimal concentration of gp120 resulting in a significant calcium flux” value in the assay with Bob (100 or 250 nM to at least 1 pM) is “—”. Besides, in the assay with Bob (listed as SF2), the “Bob activation / calcium signals in Bob-transfected Ghost (3) cells, in words” value was “do not activate Bob; also recorded: did not cause calcium signals”.
